Among the data in patent US20050037990A1, “Disubstituted 7,9-guanines halides as telomerase inhibitors” (priority 2001, published 2005) are IC50 values, retold here.

The target in this assay is T1, telomerase enzyme (Homo sapiens, UniProt O14746).
T1 construct: telomerase enzyme diluted in a buffer
T1 sequence (O14746 whole entry): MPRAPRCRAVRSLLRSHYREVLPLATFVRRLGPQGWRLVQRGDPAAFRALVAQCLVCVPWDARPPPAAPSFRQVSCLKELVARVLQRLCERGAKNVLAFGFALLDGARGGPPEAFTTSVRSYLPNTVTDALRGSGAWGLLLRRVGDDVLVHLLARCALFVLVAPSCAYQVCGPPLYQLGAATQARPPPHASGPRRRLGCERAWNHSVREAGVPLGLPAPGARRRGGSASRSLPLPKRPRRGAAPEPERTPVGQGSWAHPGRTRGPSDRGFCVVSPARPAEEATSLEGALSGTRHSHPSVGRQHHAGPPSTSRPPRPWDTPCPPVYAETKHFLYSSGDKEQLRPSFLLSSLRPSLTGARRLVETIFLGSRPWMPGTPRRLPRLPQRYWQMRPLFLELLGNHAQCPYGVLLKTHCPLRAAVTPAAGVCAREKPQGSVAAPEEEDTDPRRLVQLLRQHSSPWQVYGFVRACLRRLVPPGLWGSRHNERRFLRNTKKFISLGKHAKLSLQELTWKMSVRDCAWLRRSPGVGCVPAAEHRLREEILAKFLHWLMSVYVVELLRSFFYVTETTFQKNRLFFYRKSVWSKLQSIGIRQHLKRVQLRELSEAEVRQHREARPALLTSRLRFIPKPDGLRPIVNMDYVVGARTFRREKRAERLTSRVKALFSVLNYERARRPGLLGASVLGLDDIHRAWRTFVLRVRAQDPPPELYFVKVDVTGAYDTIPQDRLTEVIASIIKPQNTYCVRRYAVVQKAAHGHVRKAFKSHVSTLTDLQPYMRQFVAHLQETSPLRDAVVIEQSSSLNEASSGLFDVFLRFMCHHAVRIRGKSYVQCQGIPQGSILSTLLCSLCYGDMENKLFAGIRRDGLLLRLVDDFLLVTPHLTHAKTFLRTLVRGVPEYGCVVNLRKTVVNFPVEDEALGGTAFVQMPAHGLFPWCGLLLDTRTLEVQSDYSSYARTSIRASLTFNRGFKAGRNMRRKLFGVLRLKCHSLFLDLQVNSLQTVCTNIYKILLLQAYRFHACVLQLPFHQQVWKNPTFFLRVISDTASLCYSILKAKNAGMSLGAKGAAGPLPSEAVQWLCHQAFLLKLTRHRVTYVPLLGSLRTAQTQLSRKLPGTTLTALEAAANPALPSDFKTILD
Briefly: Flash Plate-based telomerase assay. In kind it is biochemical. The following applies: telomerase inhibition; two hours of incubation at 37°; Flash Plate hybridization readout. The source says: The telomerase activity of the compounds of the invention has been evaluated using a Flash Plate-based assay. […] Other methods for determining the inhibitory concentration of a compound of the invention against telomerase can be employed as will be apparent to a person skilled in the art based on the disclosure herein.
Briefly, the assay mixture is costituted by: • telomerase enzyme diluted in a buffer, the composition of which has been selected to maintain the enzyme activity stable along the duration of the assay. • dNTPs, deoxynucleotides 5′-triphosphate. • biotynilated oligo as primer. • increasing concentrations of test compounds/positive control.
After two hours of incubation at 37° degrees the telomeric repeats added are evaluated by hybridization in solution with a 3′-labeled short oligonucleotide probe.
The extent of hybridization is then quantitated by transferring the reaction mixture in a streptavidin-coated flash plate, where the binding between biotin and streptavidin occurs.
The telomerase activity is proportional to the radioactivity measured and the inhibitory activity of the compounds is evaluated as IC50 using the Sigma Plot fit program.
With the above-described method, IC50 values of the compounds of the present invention were determined.
Broadly, the IC50 is the concentration at which inhibition is half-maximal. On to `Nc1nc2c(c(=O)[nH]1)[n+](Cc1ccc(Cl)c(Cl)c1)cn2Cc1ccc(Cl)c(Cl)c1` [Compound 4, 2-amino-7,9-bis(3,4-dichlorobenzyl)-6-oxo-6,9-dihydro-1H-purin-7-ium bromide], for which the IC50 stood at 10 µM. In other words, the double-digit micromolar range. In turn, `Nc1nc2c(c(=O)[nH]1)[n+](Cc1ccc(-c3ccccc3)cc1)cn2Cc1ccc2ccccc2c1` [Compound 7, 2-amino-7-([1,1′-biphenyl]-4-ylmethyl)-9-(2-naphthylmethyl)-6-oxo-6,9-dihydro-1H-purin-7-ium bromide] displayed an IC50 of 4 µM. Under `Nc1nc2c(c(=O)[nH]1)[n+](Cc1ccc(-c3ccccc3)cc1)cn2Cc1ccc(-c2ccccc2)cc1` [Compound 2, 2-amino-7,9-bis[(1,1′-biphenyl)-4-ylmethyl]-6-oxo-6,9-dihydro-1H-purin-7-ium bromide] stands 3 µM; under `Nc1nc2c(c(=O)[nH]1)[n+](Cc1ccc3ccccc3c1)cn2Cc1ccc2ccccc2c1` [Compound 1, 2-amino-7,9-bis(2-naphthylmethyl)-6-oxo-6,9-dihydro-1H-purin-7-ium bromide], 10 µM.
